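Growth conditions: 96-well plates. Treatment: test compound, 48 hours, 5 concentrations. Analysis: linear interpolation between bracketing concentrations; unreached endpoints set to highest concentration. At the GI50, growth is halved. TGI denotes the concentration required for complete inhibition of growth.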 Where a SMILES comes first, the peptide text is derived from it. The star is where a group is joined. Boc = CC(C)(C)OC(=O)*; OBn = c1ccc(CO*)cc1; Bn = c1ccc(C*)cc1
Assays:
Assay in all cases: growth of human tumour cells (NCI), 48 h
MDA-MB-435 = tested on: MDA-MB-435
SW-620 colon = tested on: SW-620 colon
OVCAR-3 ovarian = tested on: OVCAR-3 ovarian
SF-539 CNS = tested on: SF-539 CNS
CAKI-1 renal = tested on: CAKI-1 renal
MCF7 breast = tested on: MCF7 breast
RPMI-8226 leukemia = tested on: RPMI-8226 leukemia
NCI-H522 lung = tested on: NCI-H522 lung
SNB-19 CNS = tested on: SNB-19 CNS
SK-OV-3 ovarian = tested on: SK-OV-3 ovarian

Structure (SMILES)	TGI (MDA-MB-435) [µM]	TGI (SW-620 colon) [µM]	TGI (OVCAR-3 ovarian) [µM]	TGI (SF-539 CNS) [µM]	TGI (CAKI-1 renal) [µM]	TGI (MCF7 breast) [µM]	TGI (RPMI-8226 leukemia) [µM]	TGI (NCI-H522 lung) [µM]	TGI (SNB-19 CNS) [µM]	TGI (SK-OV-3 ovarian) [µM]	GI50 (MDA-MB-435) [µM]	GI50 (SW-620 colon) [µM]	GI50 (OVCAR-3 ovarian) [µM]	GI50 (SF-539 CNS) [µM]	GI50 (CAKI-1 renal) [µM]	GI50 (MCF7 breast) [µM]	GI50 (NCI-H522 lung) [µM]	GI50 (SNB-19 CNS) [µM]	GI50 (SK-OV-3 ovarian) [µM]
CCCCC(=O)Nc1ccc2cc(C(=O)OC)c(=O)[nH]c2n1	> 100	> 100	> 100	> 100	> 100	> 100	> 100	> 100	> 100	> 100									
Brc1ccc2c(c1)[C@H]1CCc3c([nH]c4ccccc34)[C@H]1N2	26.2	27.4	25.3	16.4	21.8	18.6	23.2		27	27.5									
O=c1[nH]nc(Nc2ccccc2)c2nnn(Cc3ccccc3)c12	> 100	> 100		> 100	> 100	> 100		> 100	> 100										
Clc1ccc2nc3c(c(-c4ccccc4)nn3-c3ccccc3)c(-c3ccccc3)c2c1	> 100	> 100	> 100			> 100	> 100	> 100	> 100	> 100									
CCOC(=O)C(NC(=O)Nc1ccccc1)(Nc1cccc(Cl)c1)C(F)(F)F (configuration not stated)	> 100	> 100	> 100	> 100	> 100	> 100	> 100	> 100	> 100	> 100									
CC12CCC3=C(CSC4=C3CSc3ccccc34)C1=CCCC2=O (configuration not stated)		> 100	> 100	> 100	> 100		> 100	> 100	> 100										
Cc1cc2nc(N)n[n+]([O-])c2cc1C	> 100	> 100		> 100	> 100	> 100	> 100	> 100	> 100	> 100									
c1ccc2c3c(c(N4CCNCC4)nc2c1)CCCC3	24.4	35	40.1	23.2	21.9	27.6		31.5	29.2	42.7									
Oc1cccc(-c2cc(=S)ss2)c1	53.8	44.3		35	45.7	27.5	5.91	20.4	36.4	37.7									
O=C1N2CCN=C2c2ccccc2C1(O)c1ccccc1 (configuration not stated)	> 100	> 100		> 100	> 100	> 100	> 100		> 100										
COc1c2c(cc3oc(=O)ccc13)OC(C)(C)C=C2	68.7	84.6	> 125	> 125	29	57.8	87.6	63.9	> 125	> 125									
O=C(CSCC(=O)N/N=C/c1ccc(F)cc1)N/N=C/c1ccc(F)cc1		> 100		> 100		> 100	> 100	> 100	> 100	> 100									
CCOC(=O)Cn1c(=O)c2cc(C)cc3c(Cl)nc4c(OC)c(OC)cc1c4c32	> 100	> 100	> 100	> 100	> 100	> 100	> 100	> 100	> 100	> 100									
COc1cc(C(C)(C)C)c(OC(=O)/C=C/C(=O)O/C=C/[N+](=O)[O-])c(C(C)(C)C)c1	58.1	> 100	> 100	> 100	57.5	40.4	> 100	85.7		> 100									
c1ccc2c(c1)N=c1ccccc1=P21c2ccccc2Nc2ccccc21	2.35	13	1.57	9.24	8.02	5.74	0.616	0.913	7.26	5.82									
COc1cc(CNc2nc3cc(C(F)(F)F)ccc3nc2C(=O)O)cc(OC)c1OC	92.9	> 100	64.2	37.6	78.9	49.9		> 100	56.7	> 100									
CC1CN=C(c2ccc3c(c2)Cc2cc(C4=NCC(C)N4)ccc2-3)N1 (configuration not stated)	63.9	> 100	53.7		> 100	65.3	98.7	57.4	> 100	> 100									
CC(C)=CCC[C@@H](C)c1c(O)c(O)c(C)c2nc3ccccc3nc12	18.3	> 100	3.28	6.71	9.01	13.4	> 20.2		15.5	21.7									
C(=C/c1ccc2nc(-c3ccc(/C=C/C=N/NC4=NCCCN4)cc3)cn2c1)/C=N/NC1=NCCCN1	> 100		> 100	> 100	30.2		> 100	34.3	> 100	> 100									
C=C1CN(C(=O)c2cc3cc(OC)c(OC)c(OC)c3[nH]2)c2cc([N+](=O)[O-])ccc21	> 100	> 100	> 100	> 100	> 100	> 100	> 100		> 100	> 100									
COc1cc2[nH]c(=O)[nH]c2c2c(C)c[nH]c12	> 100	> 100	> 100		> 100	> 100	> 100	> 100	> 100	> 100									
c1ccc(C[P+]2(c3ccccc3)CCCCC2)cc1		> 100	> 100	> 100			> 100	> 100	> 100	> 100									
O=C1OS2(OC(=O)c3cccc4cccc2c34)c2ccccc21 (configuration not stated)	> 100	> 100	> 100	> 100	> 100	> 100	> 100	> 100	> 100										

Structure (SMILES)	TGI (MDA-MB-435) [µM]	TGI (SW-620 colon) [µM]	TGI (OVCAR-3 ovarian) [µM]	TGI (SF-539 CNS) [µM]	TGI (CAKI-1 renal) [µM]	TGI (MCF7 breast) [µM]	TGI (RPMI-8226 leukemia) [µM]	TGI (NCI-H522 lung) [µM]	TGI (SNB-19 CNS) [µM]	TGI (SK-OV-3 ovarian) [µM]	GI50 (MDA-MB-435) [µM]	GI50 (SW-620 colon) [µM]	GI50 (OVCAR-3 ovarian) [µM]	GI50 (SF-539 CNS) [µM]	GI50 (CAKI-1 renal) [µM]	GI50 (MCF7 breast) [µM]	GI50 (NCI-H522 lung) [µM]	GI50 (SNB-19 CNS) [µM]	GI50 (SK-OV-3 ovarian) [µM]
C=CCn1c(-c2ccc(N=NNc3ccc(-c4n[nH]c(=S)n4CC=C)cc3)cc2)n[nH]c1=S	> 100	> 100			19.1	> 100	4.63	> 100	> 100	25.3									
O=c1[nH]c(=O)n(COCCO)cc1-c1ccccc1	> 100	> 100	> 100		> 100	> 100	> 100	> 100	> 100	> 100									
O=C1CCCn2c3ccccc3c3ccnc1c32		> 100	> 100	> 100	> 46.6	> 100	> 100	> 100	> 100	> 100									
C=CCCCN1C(=O)C2C3c4ccccc4C(C=O)(c4ccccc43)C2C1=O (configuration not stated)		27.1	23.4		50.9	28.5	28.5	25.7	32.1	60.3									
CS(=O)(=O)c1nc(-c2cc3c(c(S(C)(=O)=O)n2)CCC3)cc2c1CCC2	> 100	> 100	> 100	> 100	> 100		> 100	> 100	> 100	> 100									
CSCC[C@@H](NC(=O)[C@H](CC(C)C)NC(=O)C(Cc1cnc[nH]1)NC(=O)CNC(=O)[C@@H](NC(=O)[C@H](C)NC(=O)[C@H](Cc1cn(C=O)c2ccccc12)NC(=O)[C@H](CCC(N)=O)NC(=O)[C@@H](N)CC(N)=O)C(C)C)C(N)=O (some centres not stated)		> 100	> 100	> 100		> 100	> 100	> 100	> 100	> 100									
Nc1nc(-c2ccccc2)cc(-c2ccc(F)cc2)c1-c1ccc(Cl)cc1	> 100	> 100	> 100		> 100	> 100	> 100		> 100	> 100									
N#CCCN(CCN(CCN(C(=O)Nc1ccccc1)c1ccccc1)C(=O)Nc1ccccc1)C(=O)Nc1ccccc1	> 100	> 100	> 100	> 100	> 100	> 100	> 100		> 100	> 100									
O=C(O)c1cc(/C=C/c2ccc(O)c(O)c2)ccc1O	> 100		> 100	> 100	> 100	51.4	> 100	> 100	> 100	> 100									
Cc1cc([C@H](C#N)c2nc3ccccc3s2)nc(Cl)n1	19.6	15.1	> 100	64	31	> 100	15.6		> 100	56.5									
COc1cc(/C=C/C(=O)OC[C@]23O[C@H]2[C@@H](OC2OC(C)C(O)C(O)C2O)C2C=CO[C@@H](OC4OC(CO)C(O)C(O)C4O)C23)ccc1O (some centres not stated)	> 100	> 100	> 100			> 100	> 100	> 100	> 100	> 100									
O=C(/C=C/c1ccco1)c1ccc(Nc2ccnc3cc(Cl)ccc23)cc1	> 100	> 100	> 100	> 100	> 100	4.55		> 100	> 100	> 100	> 100	3.51	4.73	15	> 100	1.46	> 100	> 100	> 100
O=C(/C=C/c1ccccc1O)CC(=O)/C=C/c1ccccc1O	> 31.6	24	22.3	15.7	29.9	7.61	15.5	9.83	22.9										
Nc1c(Cl)ncnc1NCC1(CO)CCC1	> 100	> 100	> 100	> 100		> 100	> 100	> 100											
CC(=O)Nc1ccc(S(=O)(=O)/N=c2/sc(S(N)(=O)=O)nn2C)cc1	> 100	> 100	> 100	> 100	> 100		> 100	> 100	> 100	> 100									
CC(C)OCC(O)COc1cc(=O)oc2ccccc12 (configuration not stated)	> 100	> 100	> 100		> 100	> 100	> 100	> 100	> 100	> 100									
CC1(C)OC2C(CO)OC(/N=C(\NC#N)Oc3ccccc3)C2O1 (configuration not stated)		> 100	> 100	> 100			> 100		> 100	> 100									
COc1ccc(/C=C/C=C2C(=O)NC(=S)NC2=O)cc1	7.77	3.37	29	15.8	23.8	22	18.2		20	33.2									
COC(=O)c1ccc2c(c1)CC1(C2)Cc2ccc3c(c2C1)CCC3 (configuration not stated)	14.3	> 100	> 100	> 100		81.5	74.3	66.8	> 100	51.8									
CSc1nc(NC2CC2)c2c(n1)Sc1nc3ccccc3n1N=C2	> 100	> 100	40.3	27.4	> 100	96.2		> 100	72.5	45.9									
CC(C)CC(NC(=O)C(CCC(=O)OCc1ccccc1)NC(=O)OC(C)(C)C)C(=O)NC(COCc1ccccc1)C(=O)NC(Cc1ccccc1)C(=O)O (configuration not stated) (Boc-E(OBn)LS(Bn)F-OH; configuration not given here)		> 100				> 100	> 100		> 100										
COC12OC3(C4OC41)C(C(=O)O[C@H]3CO[Si](C)(C)C(C)(C)C)C2S(=O)(=O)c1ccccc1 (some centres not stated)	> 5.11	> 31.6	> 100	> 100	3.33	> 100	11.7	50.4		> 30.4									

Reference: PubChem BioAssay (NCI)
